Among the test systems are RPMI-8226 leukemia; MDA-MB-435; SNB-19 CNS; M14 melanoma; SNB-75 CNS; HOP-92 NSCLC; ACHN renal; HL-60(TB) leukemia; NCI-H460 lung; CAKI-1 renal.
Test in all cases: DTP human tumour cell line panel, 48 h

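48-hour exposure; five concentrations; linearly interpolated endpoints. GI50 is the concentration that inhibits growth by half. TGI: concentration producing complete growth inhibition.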

Turning to `CC(=O)O[C@H]1CC[C@]2(C)C3C(=O)C[C@]4(C)[C@@H](C(C)CCC(=O)O)CC[C@@]4(C)[C@@H]3CC[C@H]2C1(C)C` (stereo partly drawn), the GI50 was 9.79 µM in the assay with RPMI-8226 leukemia; 13.5 µM in the assay on MDA-MB-435; 21 µM in the assay with SNB-19 CNS; 20.5 µM in the assay on M14 melanoma; 42.7 µM in the assay with SNB-75 CNS; 36.8 µM in the assay with HOP-92 NSCLC. Besides, the GI50 is 10.7 µM in the assay on ACHN renal, 8.65 µM in the assay on HL-60(TB) leukemia, 14.3 µM in the assay on NCI-H460 lung and 20.8 µM in the assay on CAKI-1 renal. Moreover, the total growth inhibition concentration (TGI) is over 50 µM in the assay on RPMI-8226 leukemia; 33.8 µM in the assay with MDA-MB-435; over 50 µM in the assay with SNB-19 CNS; over 50 µM in the assay on M14 melanoma; over 50 µM with SNB-75 CNS; over 50 µM in the assay with HOP-92 NSCLC. Further, the TGI in the assay with ACHN renal was 35.4 µM; in the assay with HL-60(TB) leukemia, over 50 µM; in the assay on NCI-H460 lung, over 50 µM; with CAKI-1 renal, 46.1 µM.

With `Cc1nn(-c2ccccc2)c2nc(C)n(-c3ccc(Br)cc3)c(=O)c12`, the GI50 in the assay on RPMI-8226 leukemia was 0.571 µM; with MDA-MB-435 it was 0.226 µM; in the assay with SNB-19 CNS, 0.547 µM; with M14 melanoma, 0.429 µM; in the assay on SNB-75 CNS, 0.181 µM; in the assay on HOP-92 NSCLC, 0.579 µM. Further, the GI50 in the assay on ACHN renal was 0.584 µM; in the assay with HL-60(TB) leukemia it was 0.286 µM; with NCI-H460 lung, 0.451 µM; in the assay with CAKI-1 renal, 0.416 µM. The concentration for total growth inhibition (TGI) is over 54.6 µM with RPMI-8226 leukemia; 0.684 µM in the assay on MDA-MB-435; over 100 µM in the assay on SNB-19 CNS; over 100 µM with M14 melanoma; 0.725 µM in the assay on SNB-75 CNS; 68 µM in the assay with HOP-92 NSCLC. In addition, the total growth inhibition concentration (TGI) with ACHN renal was over 100 µM; in the assay on HL-60(TB) leukemia, 3.07 µM; in the assay on NCI-H460 lung, over 39.1 µM; in the assay with CAKI-1 renal, over 100 µM.

As for `O=C(Nc1ccc(Cl)cc1)N1CCN(c2ccc3nncn3n2)CC1`, the GI50 with RPMI-8226 leukemia is 29.7 µM; in the assay on MDA-MB-435, 64.3 µM; in the assay with SNB-19 CNS, over 100 µM; in the assay on M14 melanoma, 56.2 µM; with SNB-75 CNS it was over 100 µM; in the assay with HOP-92 NSCLC, 31.7 µM. In addition, the GI50 was 50.6 µM in the assay on ACHN renal, 29.8 µM with HL-60(TB) leukemia, 50.4 µM with NCI-H460 lung and 30.3 µM in the assay on CAKI-1 renal. The TGI with RPMI-8226 leukemia, in the assay on MDA-MB-435, with SNB-19 CNS, in the assay on M14 melanoma, in the assay with SNB-75 CNS and in the assay on HOP-92 NSCLC was over 100 µM each time. The TGI with ACHN renal, in the assay with HL-60(TB) leukemia, with NCI-H460 lung and with CAKI-1 renal was over 100 µM throughout.

As for `O=c1[nH]c(=O)n(C2OC(CO)C(O)C2O)cc1F` (stereo not drawn), the concentration for 50% growth inhibition (GI50) in the assay with RPMI-8226 leukemia is 0.0742 µM; in the assay with MDA-MB-435 it was 0.0445 µM; in the assay with M14 melanoma it was 0.0819 µM; in the assay with HOP-92 NSCLC, 24.9 µM; in the assay on ACHN renal, 0.0236 µM; with HL-60(TB) leukemia, 0.025 µM. In addition, the GI50 is 0.00463 µM in the assay with NCI-H460 lung and 0.0104 µM with CAKI-1 renal. Also, the TGI was 44.8 µM in the assay with RPMI-8226 leukemia; over 77.9 µM in the assay with MDA-MB-435; over 100 µM in the assay on SNB-19 CNS; over 75.8 µM with M14 melanoma; over 100 µM with SNB-75 CNS; over 100 µM in the assay on HOP-92 NSCLC. Also, the TGI is 21 µM in the assay on ACHN renal, 26.3 µM with HL-60(TB) leukemia, 1.01 µM in the assay on NCI-H460 lung and 18.1 µM with CAKI-1 renal.

Regarding `CCC(C)C(=O)OC1CCC=C2C=CC(C)C(CCC3CC(O)CC(=O)O3)C21` (stereo not drawn), the TGI in the assay on RPMI-8226 leukemia was over 100 µM; with MDA-MB-435, over 100 µM; with SNB-19 CNS, over 100 µM; in the assay with M14 melanoma, over 27.5 µM; with SNB-75 CNS, over 75.9 µM; in the assay on HOP-92 NSCLC, over 100 µM. Besides, the total growth inhibition concentration (TGI) in the assay on ACHN renal was over 88 µM; with HL-60(TB) leukemia it was over 100 µM; in the assay with NCI-H460 lung, over 100 µM; in the assay with CAKI-1 renal, 29 µM. In addition, the GI50 with HOP-92 NSCLC is 0.79 µM.

Consider `O=C(CCl)Nc1ccc(Cc2ccc(NC(=O)CCl)cc2)cc1`, for which the GI50 was 1.67 µM in the assay with RPMI-8226 leukemia; 1.76 µM with MDA-MB-435; 1.8 µM with SNB-19 CNS; 1.23 µM in the assay with M14 melanoma; 2.09 µM in the assay on HOP-92 NSCLC; 1.56 µM in the assay with ACHN renal. The GI50 was 2.07 µM in the assay with HL-60(TB) leukemia, 2.09 µM with NCI-H460 lung and 1.62 µM in the assay with CAKI-1 renal. In addition, the TGI in the assay with RPMI-8226 leukemia is 4.78 µM; in the assay on MDA-MB-435, 4.31 µM; in the assay with SNB-19 CNS, 5.14 µM; in the assay with M14 melanoma, 3.2 µM; with SNB-75 CNS it was over 29.3 µM; in the assay on HOP-92 NSCLC, 5.12 µM. Moreover, the total growth inhibition concentration (TGI) was 3.03 µM in the assay with ACHN renal, 4.84 µM in the assay with HL-60(TB) leukemia, 4.75 µM in the assay with NCI-H460 lung and 3.38 µM in the assay on CAKI-1 renal.

As for `CCN(CC)CCCC(C)Nc1ccnc(/C=C/c2ccc(Cl)cc2)c1` (stereo not drawn), the TGI with RPMI-8226 leukemia turned out to be 5.74 µM; with MDA-MB-435 it was 2.95 µM; in the assay with SNB-19 CNS, 16.6 µM; in the assay with M14 melanoma, 2.74 µM; with SNB-75 CNS, 4.5 µM; in the assay with HOP-92 NSCLC, 3.12 µM. For the same molecule, the TGI with ACHN renal is 8.68 µM; with HL-60(TB) leukemia, over 100 µM; in the assay on NCI-H460 lung it was 7.49 µM; in the assay on CAKI-1 renal, 4.11 µM.

In the case of `C=C1C(=O)O[C@H]2[C@H]1CC/C(COC(=O)/C=C\C(=O)NCc1ccc(Cn3c(=O)sn(-c4ccc(Cl)cc4)c3=O)cc1)=C\CC[C@@]1(C)O[C@@H]21`, the GI50 is 0.27 µM in the assay on RPMI-8226 leukemia; 0.647 µM in the assay with MDA-MB-435; 0.831 µM in the assay with SNB-19 CNS; 0.639 µM with M14 melanoma; 0.623 µM in the assay on SNB-75 CNS; 0.569 µM in the assay with HOP-92 NSCLC. Further, the GI50 in the assay on ACHN renal is 0.404 µM; in the assay on HL-60(TB) leukemia, 0.696 µM; in the assay on NCI-H460 lung, 0.811 µM; with CAKI-1 renal it was 0.328 µM. In addition, the TGI in the assay on RPMI-8226 leukemia was found to be 2.05 µM; in the assay on MDA-MB-435, 1.33 µM; in the assay with SNB-19 CNS, 1.67 µM; in the assay with M14 melanoma, 1.48 µM; with SNB-75 CNS, 1.31 µM; in the assay on HOP-92 NSCLC, 1.35 µM. In addition, the TGI in the assay with ACHN renal was 1.03 µM; with HL-60(TB) leukemia it was 2.52 µM; with NCI-H460 lung, 1.74 µM; with CAKI-1 renal, 1.03 µM.

By GI50 is commonly meant the concentration that inhibits growth by half. What is called TGI is the concentration giving total growth inhibition. Low readings indicate more potent growth arrest, high ones less potent growth arrest.

Values taken from PubChem BioAssay (NCI).
